{"source": "patent US5506147A", "about": "“Non-invasive evaluation of maldigestion and malaborption” (priority 1994, dated 1996)", "key": {"chymotrypsin [1]": {"system": "chymotrypsin", "details": "cited from earlier work"}, "chymotrypsin [2]": {"system": "chymotrypsin", "experiment": "Bentiromide test with stable isotope PABA, serum PABA ratio by GC/MS (Pancreatic Ratio)", "format": "in vivo, human", "experimental": "The abundance of PABA and PABA isotope of the type administered to the patient in the 0-time sample is determined and compared to the abundance of PABA (from cleavage of bentiromide) and isotope PABA in the second sample. After adjustment for differences in the abundance of the identical quantities of PABA isotope used for standardization placed in the assay, the value of PABA in the 0-time sample is subtracted from the abundance of the PABA in the second sample (a like correction is also applied to the PABA isotope of the type administered) and a ratio of natural PABA to PABA isotope of the type administered is then determined. Individuals with a ratio greater than 0.32 are considered normal, individuals with a ratio of 0.28-0.32 are considered indeterminate, individuals with a ratio of less than 0.28 are considered abnormal.\nPancreatic and small bowel function were simultaneously evaluated using a gas chromatographic mass spectrometric (GC/MS) method on serum samples. In this method, xylose absorption was quantitated using [^13 C]1 -xylose, a stable isotope of xylose. Absorption of p-aminobenzoic acid (PABA), released from bentiromide by the action of endogenous chymotrypsin, was compared to the absorption of stable isotope PABA (^13 C6), administered orally simultaneously with bentiromide. The ratio (Pancreatic Ratio) of bentiromide PABA to stable isotope PABA in 60-minute sera samples was determined and expressed as a fraction and quantitated relative to added 2,6[^2 H]2 -PABA.\nA person presented with diarrhea and hyperthyroidism and was also noted to have significant steatorrhea (63 g fat/24 hours). The patient was further evaluated with standard serum D-xylose testing, which was abnormal (13 mg/dl, nl 20-40). […] The patient then was given the above GC/MS test. A 0-time 10 ml blood sample was taken; 6.7 mg of bentiromide was administered along with 2.0 mg of stable isotope PABA and 5 g D-xylose, and 8 fl. oz of Resource. Sixty minutes later, 10 ml of blood was drawn. The sera after clotting was collected and the PABA, [^13 C]6 -PABA and xylose were purified and assayed by GC/MS.\nAt 0-time, a blood sample was taken from all patients in the amount of 10 ml, yielding 4-6 ml of serum, an aliquot of which was analyzed by GC/MS for PABA content.\nBentiromide in the amount of 6.7 mg and stable isotope PABA ([^13 C]6 -PABA) in the amount of 2 mg was administered to normal patients and patients with various pancreatic injuries after Internal Review Board approval. After an overnight fast (nothing by mouth after midnight except water or coffee with cream), a 0-time blood sample was drawn. The patients then drank 8 oz. of Resource followed immediately (within less than five minutes) by the test solution comprising 6.7 mg bentiromide, 2 mg stable isotope PABA, and 5 grams of D-xylose dissolved in 30 cc (1 oz.) of water. Sixty minutes later, 10 mls of blood were drawn and the subjects dismissed.\nSerum collected one hour after the test meal was analyzed by GC/MS for the ratio of natural PABA to stable isotope PABA. The simultaneous administration of stable isotope PABA with bentiromide corrects for variations in gastric emptying, intestinal absorption, renal function and interfering substances in serum.\nBentiromide and stable isotope PABA were administered as set forth in Example 2 to four groups of patients designated A, B, C, and D on the X axis of FIG. 1. The ratio of labelled (i.e. stable isotope PABA) to bentiromide PABA in sera at 60 minutes is shown on the Y axis.\nSeveral types of columns are used in this analysis and these include a strong anion exchange column (SAX), a strong cation exchange column (SCX), and a C18 column. The SAX and SCX columns are prepared in disposable plastic columns containing 50 mg of each resin. Prior to use, the column is prepared by a column volume of methanol followed by four washings with four column volumes of water. […]"}, "clinical": {"experiment": "clinical", "design": "species or system human", "details": "in vivo", "description": "Xylose is purified for detection by GC/MS by the process shown in Example 7. The purification process involves rapid deproteination and two-hour derivatization. The analysis involves the examination of one specific ion (M/Z 417) of one specific anomeric peak. Because of natural anomers and possibly incomplete derivatization of carbohydrates, xylose may show several peaks on GC/MS. It is necessary to use a peak providing a linear assay. In the present assay, using a ten-meter column, xylose elutes at 6.6 minutes when the temperature is ramped from 80°-300° C. using helium gas at a head pressure of 50 psi. A second smaller peak elutes at 6.7 minutes. […]\nThe xylose is also measured in the second fluid sample by GC/MS. […] A value less than or equal to about 2.5 mg/dl is read as abnormal.\nPancreatic and small bowel function were simultaneously evaluated using a gas chromatographic mass spectrometric (GC/MS) method on serum samples. In this method, xylose absorption was quantitated using [^13 C]1 -xylose, a stable isotope of xylose. […] The ratio (Pancreatic Ratio) of bentiromide PABA to stable isotope PABA in 60-minute sera samples was determined and expressed as a fraction and quantitated relative to added 2,6[^2 H]2 -PABA. […]\n17. Place supernatant fluid into autosampler vial and examine by GC/MS using ^13 C1 -xylose as a standard for quantitation The derivatized xylose has four peaks. […]"}, "[3]": {"details": "human, in vivo, po", "experimental": "The serum xylose test is one of the best non-invasive methods for diagnosing intestinal malabsorption. In this test, D-xylose, a five-carbon sugar not naturally present in the body or in foodstuffs, is given orally and an estimation of the increase in serum xylose content is carried out through colorimetric determination (CD) of non-glucose reducing sugars in serum. However, the test is occasionally misleading by giving both false positive and false negative results. Older xylose tests measured xylose in the urine. Problems with this test include the fact that the Roe and Rice method of D-xylose analysis is non-specific and cross-reacts partially with glucose. […] Furthermore, the test critically depends on complete emptying of the urinary bladder at five hours and on intact renal function.\nAn isotope dilution assay was developed for serum xylose using GC/MS to compare to the CD of serum xylose from a commercial diagnostic company to see if variations in the analysis itself may be a contributing cause to the misleading clinical results. Since GC/MS analysis relies on both column separation and mass identification, it is more specific for xylose determination than CD."}, "[4]": {"details": "Alcoholic Pancreatitis (n = 4), serum one hour"}, "[5]": {"details": "Cystic Fibrosis (n = 16), serum one hour"}, "[6]": {"details": "Other Pancreatitis (n = 4), serum one hour"}}, "note": "Where “and” joins values, the source holds several entries; their conditions need not be identical. Equal entries are not always repeated."}
{"compound": "O=C(O)c1ccc(NC(=O)[C@H](Cc2ccc(O)cc2)NC(=O)c2ccccc2)cc1", "note": "[Bentiromide, N-benzoyl-L-tyrosyl-p-aminobenzoic acid]", "values": [{"measurement": "plasma bentiromide test result in cystic fibrosis patients", "setting": "chymotrypsin [1]", "result": "abnormally low"}, {"measurement": "Ratio in % of Natural PABA to Stable Isotope PABA", "setting": "chymotrypsin [2]; [4]", "result": "5 ± 6", "unit": "%"}, {"measurement": "Ratio in % of Natural PABA to Stable Isotope PABA, range", "setting": "chymotrypsin [2]; [4]", "result": "0-14%"}, {"measurement": "Ratio in % of Natural PABA to Stable Isotope PABA", "setting": "chymotrypsin [2]; [5]", "result": "4 ± 3", "unit": "%"}, {"measurement": "Ratio in % of Natural PABA to Stable Isotope PABA, range", "setting": "chymotrypsin [2]; [5]", "result": "0-11%"}, {"measurement": "PABA ratio in sera at 60 minutes, FIG. 1", "setting": "chymotrypsin [2]; Group B, cystic fibrosis", "result": "< 0.32"}, {"measurement": "PABA ratio in sera at 60 minutes, FIG. 1 (in words)", "setting": "chymotrypsin [2]; Group C, failed to improve on pancreatic supplementary enzymes", "result": "this entire Group C is normal"}, {"measurement": "Ratio in % of Natural PABA to Stable Isotope PABA, range", "setting": "chymotrypsin [2]; Normals (n = 38), serum one hour", "result": "34-200%"}, {"measurement": "Ratio in % of Natural PABA to Stable Isotope PABA", "setting": "chymotrypsin [2]; Normals (n = 38), serum one hour after 6.7 mg bentiromide and 2 mg [^13 C]6 -PABA", "result": "80 ± 20", "unit": "%"}, {"measurement": "Ratio in % of Natural PABA to Stable Isotope PABA", "setting": "chymotrypsin [2]; [6]", "result": "7 ± 6", "unit": "%"}, {"measurement": "Ratio in % of Natural PABA to Stable Isotope PABA, range", "setting": "chymotrypsin [2]; [6]", "result": "1-16%"}, {"measurement": "Ratio in % of Natural PABA to Stable Isotope PABA", "setting": "chymotrypsin [2]; Partial Pancreatectomy (n = 2), individual values, serum one hour", "result": "2% and 37%"}, {"measurement": "ratio of natural PABA to PABA isotope", "setting": "chymotrypsin [2]; patients with documented pancreatic insufficiency, 60-minute samples", "result": "≤ 0.18"}, {"measurement": "Pancreatic Ratio", "setting": "chymotrypsin [2]; person with steatorrhea, sixty minutes, 6.7 mg bentiromide, 2.0 mg stable isotope PABA, nl greater than 0.32", "result": 0.06}]}
{"compound": "[2H]c1c([2H])c(C(=O)O)c([2H])c([2H])c1N", "note": "[Example 12, 4-aminobenzoic-2,3,5,6-[^2 H]4]", "values": [{"measurement": "back exchange", "setting": "boiling water", "result": "lack of reaction in boiling water"}, {"measurement": "decomposition", "setting": "hot dilute acid", "result": "extensive decomposition in hot dilute acid"}]}
{"compound": "O=C[C@H](O)[C@@H](O)[C@H](O)CO", "note": "[xylose, D-xylose]", "values": [{"measurement": "concentration at 1 h", "setting": "clinical; human, po", "result": 150, "unit": "µg/mL"}, {"measurement": "xylose analysis, FIG. 4 (in words)", "setting": "clinical", "result": "low"}, {"measurement": "standard serum D-xylose testing", "setting": "[3]", "result": 13, "unit": "mg/dL"}, {"measurement": "xylose content by CD, sera post xylose administration", "setting": "[3]", "result": "3 to 52", "unit": "mg/dL"}]}
